From patent US20210068395A1, “METHODS OF APPLYING ONE OR MORE CERTAIN HETEROARYL-1,2,4-TRIAZOLE AND HETEROARYL-TETRAZOLE COMPOUNDS TO CONTROL DAMAGE ON PLANTS, PROPAGATION MATERIAL THEREOF, AND PLANT DERIVED PRODUCTS” (SYNGENTA CROP PROTECTION AG, priority 2018, published 2021) come the findings set out here.

Each structure is given as a SMILES string. A value given as a limit tells only on which side of the number the result lay.

Format in all cases: in vivo
For assay [1], the system named is Aedes aegypti (Yellow Fever Mosquito). In words: whole plant or invertebrate. To be noted: test rate 200 ppm, adult females, mortality assessed at 24 and 48 hours. The protocol:
Test solutions, at an application rate of 200 ppm in ethanol, were applied to 12 well tissue culture plates. Once the deposits were dry, five, two to five day old adult female Aedes aegypti were added to each well, and sustained with a 10% sucrose solution in a cotton wool plug. Assessment of knockdown was made one hour after introduction, and mortality was assessed at 24 and 48 hours after introduction.

The subject of assay [2] is Nilaparvata lugens (Brown Plant Hopper). In words: Nilaparvata lugens larvicide, systemic into water. To be noted: 168 h, test rate 12.5 ppm, into nutritive solution of rice plants, N3 nymphs, 7 days after infestation, read-out: control in at least one of the two categories (mortality or growth inhibition). As for the experimental part:
Rice plants cultivated in a nutritive solution were treated with the diluted test solutions into nourishing cultivation system. 1 day after application plants were infested with ˜20 N3 nymphs. 7 days after infestation samples were assessed for mortality and growth inhibition.

For assay [3], the system named is Aphis craccivora (Black Bean Aphid). In words: Aphis craccivora mixed population, systemic/feeding. As to conditions: 120 h, test rate 12.5 ppm, pea seedlings in test solutions, 5 days. As for the experimental part: Pea seedlings infested with mixed aged aphid population, were put into glass vials with test solutions. 5 days later, samples were assessed for mortality.

Assay [4] deals with Diabrotica balteata (corn root worm). In words: Diabrotica balteata (corn root worm), sprayed maize sprouts. To be noted: 96 h, application rate 200 ppm, L2 larvae, 4 days after infestation, read-out: control in at least one of the two categories (mortality or growth inhibition). As for the experimental part:
Maize sprouts placed onto an agar layer in 24-well microtiter plates were treated with aqueous test solutions prepared from 10,000 ppm DMSO stock solutions by spraying. After drying, the plates were infested with L2 larvae (6 to 8 per well). The samples were assessed for mortality and growth inhibition in comparison to untreated samples 4 days after infestation.

In assay [5] the test system is Myzus persicae (Green Peach Aphid). In words: Myzus persicae feeding activity (sucrose solution, Parafilm). To be noted: 120 h, test rate 12.5 ppm, in sucrose solution, 5 days after infestation. As for the experimental part:
Test compounds prepared from 10,000 ppm DMSO stock solutions were applied by pipette into 24-well microtiter plates and mixed with sucrose solution. The plates were closed with a stretched Parafilm. A plastic stencil with 24 holes was placed onto the plate and infested pea seedlings were placed directly on the Parafilm. The infested plate was closed with a gel blotting paper and another plastic stencil and then turned upside down. The samples were assessed for mortality 5 days after infestation.

Assay [6] concerns Chrysodeixis includens (Soybean Looper). In words: Chrysodeixis includens larvicide, feeding/contact. As to conditions: 120 h, test rate 50 ppm, L2 larvae on soybean leaves, 5 days after infestation, read-out: control in at least one of the two categories (mortality or growth inhibition). As for the experimental part:
Soybean plants were treated in a spray chamber, cut off and placed into petri dishes containing wet filter paper. 1 d after application leaves were infested with 5 L2 larvae and covered with a fabric filter and plastic lids. 5 days after infestation the samples were assessed for mortality and growth inhibition.

Assay [7] concerns Carpocapsa (Cydia) Pomonella (Codling Moth). The assay is described as follows: Carpocapsa (Cydia) pomonella larvicide, feeding/contact. As to conditions: 336 h, test rate 50 ppm, L1 larvae on diet cubes, 14 days after infestation, read-out: control in at least one of the two categories (mortality or growth inhibition). The protocol: Diet cubes coated with paraffin were sprayed with diluted test solutions in an application chamber. After drying off the treated cubes (10 replicates) were infested with 1 L1 larvae. Samples were incubated at 26-27° C. and checked 14 days after infestation for mortality and growth inhibition.

In assay [8] the test system is Nilaparvata lugens (Brown Plant Hopper). The assay is described as follows: Nilaparvata lugens larvicide, feeding/contact. To be noted: 168 h, test rate 200 ppm, N3 nymphs on sprayed rice plants, 7 days after treatment, read-out: control in at least one of the two categories (mortality or growth inhibition). The protocol: Rice plants were treated with the diluted test solutions in a spray chamber. After drying plants were infested with ˜20 N3 nymphs. 7 days after the treatment samples were assessed for mortality and growth inhibition.

Assay [9] concerns Chilo suppressalis (Striped Stem Borer). In words: Chilo suppressalis larvicide, feeding/contact. To be noted: 120 h, test rate 200 ppm, L2 larvae on sprayed rice plants, 5 days after application. As for the experimental part:
Rice plants were treated in a spray chamber, cut off and placed into petri dishes containing wet filter paper. 10 L2 larvae were infested and covered up with a cotton filter and a lid. 5 days after application samples were assessed for mortality.

Assay [10] deals with Plutella xylostella (Diamond Back Moth). In words: Plutella xylostella feeding/contact activity, 96-well artificial diet. As to conditions: 216 h, application rate 500 ppm, 9 days after infestation. As for the experimental part:
1, 2, 3, 4, 17, 19, 23, 26, 39, 41, 42, 54, 55, 56 Plutella xylostella (Diamond Back Moth):Feeding/Contact Activity 96-well microtiter plates containing artificial diet were treated with aqueous test solutions, prepared from 10,000 ppm DMSO stock solutions, by a liquid handling robot. After drying, eggs (˜30 per well) were infested onto a netted lid which was suspended above the diet. The eggs hatch and L1 larvae move down to the diet. The samples were assessed for mortality 9 days after infestation.

Assay [11] concerns Euschistus heros (Neotropical Brown Stink Bug). The assay is described as follows: Euschistus heros feeding/contact activity. As to conditions: 120 h, application rate 200 ppm, N2 nymphs on soybean leaves, 5 days after infestation, read-out: control in at least one of the two categories (mortality or growth inhibition). The protocol: Soybean leaves on agar in 24-well microtiter plates were sprayed with aqueous test solutions prepared from 10,000 ppm DMSO stock solutions. After drying the leaves were infested with N2 nymphs. The samples were assessed for mortality and growth inhibition 5 days after infestation.

The test system of assay [12] is Myzus persicae (Green Peach Aphid). In words: Myzus persicae feeding/contact activity. As to conditions: foliar, 144 h, application rate 200 ppm, sunflower leaf discs sprayed, 6 days after infestation. As for the experimental part:
Sunflower leaf discs were placed onto agar in a 24-well microtiter plate and sprayed with aqueous test solutions prepared from 10,000 ppm DMSO stock solutions. After drying, the leaf discs were infested with an aphid population of mixed ages. The samples were assessed for mortality 6 days after infestation.

Assay [13] has the same test system. The assay is described as follows: Myzus persicae systemic activity. To be noted: 144 h, test rate 24 ppm, roots of pea seedlings in test solution, 6 days. The protocol: Roots of pea seedlings infested with an aphid population of mixed ages were placed directly into aqueous test solutions prepared from 10,000 DMSO stock solutions. The samples were assessed for mortality 6 days after placing seedlings into test solutions.

In assay [14] the test system is Anopheles stephensi (Indian Malaria Mosquito). In words: Anopheles stephensi adult contact on treated plates. As to conditions: test rate 200 ppm, adult females, mortality assessed at 24 and 48 hours. The protocol:
Test solutions, at an application rate of 200 ppm in ethanol, were applied to 12 well tissue culture plates. Once the deposits were dry, five, two to five day old adult female Anopheles stephensi were added to each well, and sustained with a 10% sucrose solution in a cotton wool plug. Assessment of knockdown was made one hour after introduction, and mortality was assessed at 24 and 48 hours after introduction.

Assay [15] relates to Thrips tabaci (Onion thrips). The assay is described as follows: Thrips tabaci feeding/contact activity. As to conditions: foliar, 144 h, application rate 200 ppm, sunflower leaf discs, 6 days after infestation, read-out: control in at least one of the two categories (mortality or anti-feeding). As for the experimental part:
Sunflower leaf discs were placed on agar in 24-well microtiter plates and sprayed with aqueous test solutions prepared from 10,000 ppm DMSO stock solutions. After drying the leaf discs were infested with a thrips population of mixed ages. The samples were assessed for mortality, and anti-feeding 6 days after infestation.

Assay [16] concerns Aphis craccivora (Black Bean Aphid). The assay is described as follows: Aphis craccivora mixed population, contact/feeding. To be noted: 120 h, test rate 200 ppm, pea seedlings sprayed, 5 days after treatment. The protocol:
Pea seedlings infested with mixed aged aphid population were treated with diluted test solutions in a spray chamber. 5 days after treatment, samples were assessed for mortality.

For assay [17], the system named is Spodoptera littoralis (Egyptian Cotton Leaf Worm). The assay is described as follows: Spodoptera littoralis feeding/contact activity. To be noted: foliar, 72 h, application rate 200 ppm, L1 larvae on cotton leaf discs, 3 days after infestation, read-out: control in at least one of the three categories (mortality or growth inhibition or anti-feeding). The protocol: Cotton leaf discs were placed onto agar in 24-well microtiter plates and sprayed with aqueous test solutions prepared from 10,000 ppm DMSO stock solutions. After drying the leaf discs were infested with five L1 larvae. The samples were assessed for mortality, anti-feeding and growth inhibition 3 days after infestation.

The subject of assay [18] is Frankliniella occidentalis (Western Flower Thrips). In words: Frankliniella occidentalis feeding/contact activity. To be noted: foliar, 168 h, application rate 200 ppm, mixed ages on sunflower leaf discs, 7 days after infestation. The protocol:
Sunflower leaf discs were placed on agar in 24-well microtiter plates and sprayed with aqueous test solutions prepared from 10,000 DMSO stock solutions. After drying the leaf discs were infested with a Frankliniella population of mixed ages. The samples were assessed for mortality 7 days after infestation.

The mortality is the percentage killed. Low readings indicate a weak lethal effect, high ones a strong lethal effect. Take `C#CCN(C(=O)c1cc(C(F)(F)F)cc(C(F)(F)F)c1)C(C)c1ncnn1-c1ncccn1` (stereo not drawn) [Compound 2]: the mortality at 200 ppm in assay [1] is at least 60%; in assay [9] it was at least 80%; in assay [12], at least 80%; in [14], at least 60%; in assay [16], at least 80%; in assay [18], at least 80%. Moreover, the percent control (mortality or growth inhibition) at 12.5 ppm in assay [2] is at least 80%. The mortality at 12.5 ppm in [3] and in assay [5] was at least 80% each time. Moreover, the percent control (mortality or growth inhibition) at 200 ppm in assay [4], in assay [8] and in assay [11] was at least 80% throughout. In addition, the percent control (mortality or growth inhibition) at 50 ppm in assay [6] and in [7] was at least 80% in each case. Besides, the mortality at 500 ppm in [10] is at least 80%. The same compound yielded a mortality at 24 ppm in assay [13] of at least 80%. Further, the percent control (mortality, anti-feedant effect or growth inhibition) at 200 ppm in [15] and in assay [17] was at least 80% throughout.
